The values below come from patent US20100104628A1, “METHOD OF TREATING NEUROBLASTOMA” (priority 2007, published 2010).

“And” between values parts separate entries of the source, which are not always exact repeats. Equal entries are not always repeated. Where two headings read alike, the source gives them in different places.

Data set [1] can be described thus: Stability / reaction kinetics by proton NMR (half-life). It is filed as physicochemical. The note with it: 37° C., pH 7.4, BisTris buffer, 5% DMSO. From the text:
Proton NMR was used to determine the half-lives for chloro- and bromomethyl-MIBG (Table 1). These analogs react with nucleophiles via an SN2 mechanism; therefore, the rate of the reaction depends on the strength and concentration of the nucleophile as well as the nature of the leaving group. Thus, the half-lives of the analogs are predictably longer in buffer than they are in buffer with added glutathione (a relatively strong nucleophile) and, under the same conditions, the bromo analog (better leaving group) reacts faster than the chloro analog.

A further data set deals with SK-N-SH (NET ++). Put plainly: Cytotoxicity, MTT assay, SK-N-SH. It counts as cell-based. (Formazan colour is commonly taken as a measure of viable cells.)
Another data set can be described thus: in vitro. It counts as cell-based, human. The note with it: human; for IC50 at 24 h: 24 hr assay.
The conditions of data set [2]: (101×C3H)F1 male mice, cited from earlier work.
The subject of a further data set is SK-N-BE(2c) (NET ++++). Put plainly: cells. It is filed as cell-based.
A further data set addresses T1, NET (Homo sapiens, UniProt P23975).
T1 construct: endogenous in cells; host or cells: SK-N-SH neuroblastoma cells
The data set is described as follows: NET competitive binding assay ([125I]MIBG displacement, SK-N-SH cells). Conditions: 5 μM test compound, 2 hr incubation. As for the experimental part:
An assay to assess binding of various MIBG-analogs to the NET was performed by published methods (Vaidynathan et al, Nucl. Med. Commun. 25:947-955 (2004), Vaidynathan et al, Bioorg. Med. Chem. 12:1649-1656 (2004), Vaidynathan et al, Bioconjugate Chem. 12:798-806 (2001), Vaidynathan et al, Eur. J. Nucl. Med. Mol. Imaging 31:1362-1370 (2004)). In brief, neuroblastoma SK—N—SH cells (moderate levels of NET) were treated with [^125I]MIBG and with increasing concentrations of unlabeled MIBG or MIBG-analogs. At the end of a 2 hr incubation and appropriate work-up, the cell-bound radioactivity was counted. Total cell-bound radioactivity minus non-specific cell-bound radioactivity gave a value for specific binding which was plotted in FIG. 9 against the concentration of test compounds. At 5 μM, cold MIBG displaced “100%” of the labeled-MIBG (i.e., “zero” cell-bound radioactivity). At 5 μM, chloromethyl-MIBG displaced 83%; the disulfide MIBG-SS-ethyl and the ester MIBG-phenylbutyrate displaced 50-55%; and hydroxymethyl-MIBG displaced 27%.

A further data set deals with MCF7 (NET 0). The data set is described as follows: in vitro. It counts as cell-based, human.
A further data set relates to SK—N-BE(2c) (high NET). The data set is described as follows: Glutathione depletion in vitro, SK-N-BE(2c). It counts as cell-based. As for the experimental part: (§1) The NB cell line SK—N-BE(2c) (high net) was treated with MIBG, MIBG-disulfide dimer (MIGB-S—S-MIBG), chloromethyl-MIBG (cmMIBG), and BSO. For comparison, the human breast cancer line MCF7 (no NET) was treated with chloromethyl-MIBG and BSO. At specific times, intracellular glutathione in drug-treated cells was determined relative to that in untreated cells (control).
SK—N-BE(2c) (high NET) cells were treated with a single concentration of chloromethyl-MIBG (25 μM at t=0). Glutathione concentrations in treated and untreated cells were measured at t=0.5, 1, 2, 3 and 4 hrs. Glutathione levels in drug-treated cells progressively fell, with a concentration 50% that of control at t 4 hrs (FIG. 10B).
(§2) Cells were exposed to 5 μM chloromethyl-MIBG (cmMIBG), 25 μM BSO and a combination of 5 μM chloromethyl-MIBG+25 μM BSO (both) for 7 hrs. Compared to controls, chloromethyl-MIBG alone depleted glutathione by about 30% in SK—N—Be(2c) cells and 8% in MCF7. BSO, as expected, depleted MCF7 and SK—N—Be(2c) by similar amounts (42 and 54% of controls, respectively). In combination studies, chloromethyl-MIBG+BSO depleted levels by about 85% in the SK—N—Be(2c) cells and had much less effect on the MCF7 cells with glutathione reduced by 49% relative to controls.

Another data set relates to MCF7 (no NET). The data set is described as follows: Glutathione depletion in vitro, MCF7. It is filed as cell-based, human. The note with it: 25 μM BSO, 7 hrs. As for the experimental part:
as §1, §2

Setting [3] is: single agent, 1% DMSO, read-out: Cytotoxicity IC50.
Setting [4] is: 48 hr assay (24 h exposure + 24 h recovery), Table 3, read-out: Cytotoxicity IC50.
Setting [5] is: 24 hr assay, single agent, 1% DMSO, read-out: Cytotoxicity IC50.

T1 sequence (P23975 whole entry): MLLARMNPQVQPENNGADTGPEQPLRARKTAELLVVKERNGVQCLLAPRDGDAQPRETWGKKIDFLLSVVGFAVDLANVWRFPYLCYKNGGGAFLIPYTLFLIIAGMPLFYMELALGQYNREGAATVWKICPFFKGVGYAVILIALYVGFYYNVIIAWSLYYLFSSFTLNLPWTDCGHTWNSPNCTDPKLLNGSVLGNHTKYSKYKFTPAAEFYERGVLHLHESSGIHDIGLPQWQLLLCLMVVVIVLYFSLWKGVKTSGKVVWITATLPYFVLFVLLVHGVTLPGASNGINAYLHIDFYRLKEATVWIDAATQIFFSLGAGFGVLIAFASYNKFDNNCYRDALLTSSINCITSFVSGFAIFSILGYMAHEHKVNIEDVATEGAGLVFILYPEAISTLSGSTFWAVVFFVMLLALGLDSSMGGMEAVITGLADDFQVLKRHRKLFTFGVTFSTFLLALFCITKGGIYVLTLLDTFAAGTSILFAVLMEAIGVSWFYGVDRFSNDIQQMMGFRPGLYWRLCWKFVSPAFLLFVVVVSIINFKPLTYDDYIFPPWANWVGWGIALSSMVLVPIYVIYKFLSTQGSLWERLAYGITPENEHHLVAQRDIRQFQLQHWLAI

With `N=C(N)NCc1ccc(CBr)c(I)c1` [Bromomethyl-MIBG], in [1], the Half-life worked out at 42.5 ± 0.7 min. In addition, the “Half-life w/10 eq GSH” value in data set [1] (10 eq GSH) is below 0.083 min.

Turning to `N[C@@H](Cc1ccc(N(CCCl)CCCl)cc1)C(=O)O` [Melphalan], the IC50 (usually the concentration needed to halve the response being measured) was 54.1 ± 13.8 µM in the data set on SK-N-SH (NET ++) (Homo sapiens, SK-N-SH, 48 h, read-out: Cytotoxicity IC50, 48 hr assay, single agent, Table 4); 36.7 ± 18.7 µM in the data set with SK-N-SH (NET ++) (Homo sapiens, SK-N-SH, 48 h, read-out: Cytotoxicity IC50 of melphalan, 48 hr assay, + 1 μM cmMIBG added at same time); 29.9 ± 10.6 µM in the data set with SK-N-SH (NET ++) (Homo sapiens, SK-N-SH, 48 h, read-out: Cytotoxicity IC50 of melphalan, 48 hr assay, + 5 μM cmMIBG added at same time); 54.1 ± 13.8 µM in the data set with SK-N-SH (NET ++) (Homo sapiens, SK-N-SH, read-out: Cytotoxicity IC50, 48 hr assay (24 h exposure + 24 h recovery), Table 3); 29.8 ± 4.8 µM in the data set with SK-N-SH (NET ++) (Homo sapiens, SK-N-SH, read-out: Cytotoxicity IC50 of melphalan, 48 hr assay, cells treated with 1 μM cmMIBG for 3 hrs, then melphalan added); 38.4 ± 7.7 µM in the data set with SK-N-SH (NET ++) (Homo sapiens, SK-N-SH, read-out: Cytotoxicity IC50 of melphalan, 48 hr assay, cells treated with 5 μM cmMIBG for 3 hrs, then melphalan added). The IC50 with SK-N-BE(2c) (NET ++++) (SK-N-BE(2)-C, 24 h, read-out: Cytotoxicity IC50, 24 hr assay, single agent, 1% DMSO) amounted to 36.2 ± 5.2 µM; with SK-N-BE(2c) (NET ++++) (SK-N-BE(2)-C, 24 h, read-out: Cytotoxicity IC50 of melphalan, 24 hr assay, + 5 μM MIBG) it was 43.5 ± 7 µM; in the data set with SK-N-BE(2c) (NET ++++) (SK-N-BE(2)-C, 24 h, read-out: Cytotoxicity IC50 of melphalan, 24 hr assay, + 5 μM cmMIBG (Table 2D)) it was 11.3 ± 5.4 µM; with SK-N-BE(2c) (NET ++++) (SK-N-BE(2)-C, 24 h, read-out: Cytotoxicity IC50 of melphalan, competition experiment, 24 hr assay, + 5 μM cmMIBG + 5 μM MIBG) it was 22.9 µM; in the data set with SK-N-BE(2c) (NET ++++) (SK-N-BE(2)-C, 24 h, read-out: Cytotoxicity IC50 of melphalan, competition experiment, 24 hr assay, + 5 μM cmMIBG plus vehicle (no MIBG)), 8.1 µM; in the data set with SK-N-BE(2c) (NET ++++) (SK-N-BE(2)-C, 48 h, read-out: Cytotoxicity IC50, 48 hr assay, single agent, Table 4), 25.8 ± 3.5 µM. In addition, the IC50 was found to be 13.9 ± 4.7 µM in the data set on SK-N-BE(2c) (NET ++++) (SK-N-BE(2)-C, 48 h, read-out: Cytotoxicity IC50 of melphalan, 48 hr assay, + 1 μM cmMIBG added at same time); 7.3 ± 1.3 µM in the data set on SK-N-BE(2c) (NET ++++) (SK-N-BE(2)-C, 48 h, read-out: Cytotoxicity IC50 of melphalan, 48 hr assay, + 5 μM cmMIBG added at same time); 25.8 ± 3.54 µM in the data set with SK-N-BE(2c) (NET ++++) (SK-N-BE(2)-C, read-out: Cytotoxicity IC50, 48 hr assay (24 h exposure + 24 h recovery), Table 3); 14 ± 3.7 µM in the data set on SK-N-BE(2c) (NET ++++) (SK-N-BE(2)-C, read-out: Cytotoxicity IC50 of melphalan, 48 hr assay, cells treated with 1 μM cmMIBG for 3 hrs, then melphalan added); 10.2 ± 0.9 µM with SK-N-BE(2c) (NET ++++) (SK-N-BE(2)-C, read-out: Cytotoxicity IC50 of melphalan, 48 hr assay, cells treated with 5 μM cmMIBG for 3 hrs, then melphalan added). Also, the IC50 at 24 h in “in vitro” (+ 5 μM MIBG, read-out: Cytotoxicity IC50 of melphalan) amounted to 386 ± 181 µM; in “in vitro” (+ 5 μM cmMIBG (Table 2D), read-out: Cytotoxicity IC50 of melphalan) it was 276 ± 28 µM; in the data set “in vitro” (setting [3]) it was 250 ± 112 µM. In addition, the IC50 at 48 h was 126 ± 28 µM in the data set “in vitro” (setting [4]); 127 ± 17 µM in “in vitro” (48 hr assay, + 1 μM cmMIBG added at same time, read-out: Cytotoxicity IC50 of melphalan); 75 ± 25 µM in “in vitro” (48 hr assay, + 5 μM cmMIBG added at same time, read-out: Cytotoxicity IC50 of melphalan); 60 ± 7 µM in “in vitro” (48 hr assay, cells treated with 1 μM cmMIBG for 3 hrs, then melphalan added, read-out: Cytotoxicity IC50 of melphalan); 43 ± 11 µM in “in vitro” (48 hr assay, cells treated with 5 μM cmMIBG for 3 hrs, then melphalan added, read-out: Cytotoxicity IC50 of melphalan); 126 ± 28 µM in the data set “in vitro” (48 hr assay, single agent, Table 4, read-out: Cytotoxicity IC50). The death rate in [2] (20 mg/kg single injection i.p., by one week) is listed as 100%. The MTD in data set [2] (single injection, i.p.) is 10 to 15 mg/kg.

As to `ClCc1ccccc1` [chloromethyl-benzene, benzylchloride], the IC50 at 24 h in “in vitro” (setting [3]) was 390 ± 77 µM. The IC50 in the data set on SK-N-BE(2c) (NET ++++) (setting [5]) turned out to be 172 ± 31 µM.

As to `N=C(N)NCc1ccc(CO)c(I)c1` [hydroxymethyl-MIBG], the “displacement of [125I]MIBG (specific cell-bound radioactivity)” value on NET was determined as 27%.

`CCSSCc1ccc(CNC(=N)N)cc1I` [MIBG-SS-ethyl]: the IC50 stood at 24.2 ± 7.21 µM with MCF7 (NET 0) (setting [4]) and 27.4 ± 4.09 µM in the data set on SK-N-BE(2c) (NET ++++) (setting [4]).

As for `N=C(N)NCc1cccc([131I])c1` [MIBG, meta-iodobenzylguanidine], the “effect on glutathione levels” value in the data set on SK—N-BE(2c) (high NET) (concentrations up to 25 μM, incubation up to 4 hrs) is listed as “did not significantly affect glutathione levels”. Moreover, the “displacement of [125I]MIBG (specific cell-bound radioactivity)” value on NET is 100%.

As to `N=C(N)NCc1cccc(I)c1` [MIBG, meta-iodobenzylguanidine], the IC50 is 190 ± 22 µM with SK-N-SH (NET ++) (setting [4]); 227 µM and 232 µM with MCF7 (NET 0) (setting [5]); 137 ± 27 µM with MCF7 (NET 0) (setting [4]); 167 µM and 200 µM with SK-N-BE(2c) (NET ++++) (setting [5]); 142 ± 21 µM in the data set on SK-N-BE(2c) (NET ++++) (setting [4]).

In the case of `N=C(N)NCc1ccc(CSSCc2ccc(CNC(=N)N)cc2I)c(I)c1` [MIBG-disulfide dimer], in the data set with SK—N-BE(2c) (high NET) (5 μM), the “effect on glutathione levels” value is reported as “a transient loss of glutathione was observed” and the “time for glutathione to return to pre-treatment levels” value is at most 8 h. The “effect on glutathione levels and cell viability” value in the data set with SK—N-BE(2c) (high NET) (higher concentrations (25 and 100 microM), up to 8 hrs) is “extensive loss of glutathione and cell viability with no recovery”.

For `N=C(N)NCc1ccc(CSC[C@H](NC(=O)CC[C@H](N)C(=O)O)C(=O)NCC(=O)O)c(I)c1` [MIBG-S-Glutathione], the IC50 was above 1000 µM with MCF7 (NET 0) and 390 µM in the data set on SK-N-BE(2c) (NET ++++).

Take `CCCCS(=N)(=O)CCC(N)C(=O)O` (stereo not shown) [BSO, buthionine sulfoximine]: the “glutathione depletion compared to controls” value is 54% with SK—N-BE(2c) (high NET) (25 μM BSO, 7 hrs) and 42% in the data set on MCF7 (no NET).
